Experiments:
[1] = test system: Fgfr3^N534K/+ mice (hypochondroplasia mouse model); test: Tail suspension test (TST), HCH mouse model; type: in vivo; settings: bottle treatment 3 mg/L, 4 weeks; adult mice
Method: This test is based on the observation that rodents, after initial escape-oriented movements, develop an immobile posture when placed in an inescapable stressful situation. Each mouse is hung in an uncontrollable fashion by their tail at above 25 cm from the floor. Mice were tested for 5 min, and the time spent immobile was quantified. To confirm the direct implication of brain FGFR3 in cognitive disorders observed in Fgfr3^N534K/+ mice, we decided to treat mice with (−)-epicatechin bottle treatment. The animals were treated with bottle (−)-epicatechin (3 mg/L) during 4 weeks before behavioural tests.

[2] = test system: Fgfr3^N534K/+ mice (hypochondroplasia mouse model); test: Bar beam, locomotion and fine coordination, HCH mouse model; type: in vivo; settings: bottle treatment 3 mg/L, 4 weeks; adult mice
Description: The bar beam is a test to measure fine motor coordination and balance in mice by assessing if the mice stay upright and walk across an elevated narrow beam to a safe platform. This test takes place over 2 consecutive days and we measured the time it takes for the mouse to traverse the beam and the maximum distance done To confirm the direct implication of brain FGFR3 in cognitive disorders observed in Fgfr3^N534K/+ mice, we decided to treat mice with (−)-epicatechin bottle treatment. The animals were treated with bottle (−)-epicatechin (3 mg/L) during 4 weeks before behavioural tests.

[3] = test system: Fgfr3^N534K/+ mice (hypochondroplasia mouse model); test: Morris water maze (MWM), spatial memory, HCH mouse model; type: in vivo; settings: bottle treatment 3 mg/L, 4 weeks; adult mice
Method: The Morris water maze (MWM) is a test of spatial learning for mice that relies on distal cues to navigate from a start location to locate a submerged escape platform. Spatial learning is assessed across repeated trials during 8 days and reference memory is determined by location of the platform area. To confirm the direct implication of brain FGFR3 in cognitive disorders observed in Fgfr3^N534K/+ mice, we decided to treat mice with (−)-epicatechin bottle treatment. The animals were treated with bottle (−)-epicatechin (3 mg/L) during 4 weeks before behavioural tests.

[4] = test system: Fgfr3^N534K/+ mice (hypochondroplasia mouse model); test: Forced swim test (FST), HCH mouse model; type: in vivo; settings: adult mice
Method: (§1) 4 months old Fgfr3^N534K/+ mice and Fgfr3^A385E/+ mice received daily subcutaneous administration of (−)-epicatechin (0.15 mg/kg) or vehicle (HcL 3.5 mM, DMSO 2%) for at least seven days. For habituation and testing NOR and NOL, injection was performed 1 hour before testing phase. Timing of injection for the different tests: NOL at 7 days, NOR at 14 days, TST: at 22 days and FST at 24 days. This test is based on a similar observation than the TST. Each mouse is placed in a cylinder (height: 25 cm and diameter: 10 cm) filled with water (23-25° C.). Mice were tested for 5 min, and the time spent immobile (behavioral despair) was quantified. To confirm the direct implication of brain FGFR3 in cognitive disorders observed in Fgfr3^N534K/+ mice, we decided to treat mice with (−)-epicatechin bottle treatment. The animals were treated with bottle (−)-epicatechin (3 mg/L) during 4 weeks before behavioural tests.

[5] = test system: Fgfr3^N534K/+ mice (hypochondroplasia mouse model); test: Novel object recognition (NOR), episodic memory, HCH mouse model; type: in vivo
Method: (§2) 4 months old Fgfr3^N534K/+ mice and Fgfr3^A385E/+ mice received daily subcutaneous administration of (−)-epicatechin (0.15 mg/kg) or vehicle (HcL 3.5 mM, DMSO 2%) for at least seven days. For habituation and testing NOR and NOL, injection was performed 1 hour before testing phase. Timing of injection for the different tests: NOL at 7 days, NOR at 14 days, TST: at 22 days and FST at 24 days.
(§3) We used a modified version of the NOR task as described in Glatigny et al., 2019. Mice were transported a short distance from the holding mouse facility to the testing room in their home cages and left undisturbed for at least one hour before the beginning of the test. The testing room was lit with two 60-W light bulbs and behavior sessions were recorded with a camera above the testing arena (grey plastic box (60×40×32 cm)). […] The objects elicited equal levels of exploration as determined in pilot experiments and training phase. […]
(§4) The following behaviors were considered as exploration of the objects: sniffing, licking, or touching the object with the nose or with the front legs or directing the nose to the object at a distance≤1 cm. Investigation was not scored if the mouse was on top of the object or completely immobile. The discrimination index was calculated as (time spent exploring the new object-time spent exploring the familiar object)/(total time spent exploring both objects). […]

[6] = test system: Fgfr3^N534K/+ mice (hypochondroplasia mouse model); test: Contextual fear conditioning (CFC), associative memory, HCH mouse model; type: in vivo; settings: bottle treatment 3 mg/L, 4 weeks; adult mice
Description: We performed on 4-month-old male mice a test related to the hippocampus associative memory (one-trial contextual fear conditioning, CFC). This test allows us to understand the ability of mice to remember an event associated with memory integration. During this behavorial test, we assess the freezing time of the mice, the mutant mice baseline was similar to control littermates during the training phase (p=0,2303). […] To confirm the direct implication of brain FGFR3 in cognitive disorders observed in Fgfr3^N534K/+ mice, we decided to treat mice with (−)-epicatechin bottle treatment. The animals were treated with bottle (−)-epicatechin (3 mg/L) during 4 weeks before behavioural tests.

FGFR3 = FGFR3 (Homo sapiens, UniProt P22607); settings: reason for selection; no test described; cited from earlier work
[7] = test system: Fgfr3^Y367C/+ mouse model; settings: cited from earlier work
[8] = test system: Fgfr3^A385E/+ mice (CAN mouse model); test: Novel object recognition (NOR), CAN mouse model; type: in vivo; settings: subcutaneous injections for 7 days at least; 4-month-old mice
Method: as §2, §3, §4

[9] = test system: Fgfr3^A385E/+ mice (CAN mouse model); test: Forced swim test (FST), CAN mouse model; type: in vivo; settings: subcutaneous injections for 7 days at least; 4-month-old mice
Method: as §1, with “quantified.” for “quantified. To confirm the direct implication of brain FGFR3 in cognitive disorders observed in Fgfr3^N534K/+ mice, we decided to treat mice with (−)-epicatechin bottle treatment. The animals were treated with bottle (−)-epicatechin (3 mg/L) during 4 weeks before behavioural tests.”

[10] = test system: Fgfr3^N534K/+ mice (hypochondroplasia mouse model); test: Novel object location (NOL), spatial memory, HCH mouse model; type: in vivo
Method: 4 months old Fgfr3^N534K/+ mice and Fgfr3^A385E/+ mice received daily subcutaneous administration of (−)-epicatechin (0.15 mg/kg) or vehicle (HcL 3.5 mM, DMSO 2%) for at least seven days. For habituation and testing NOR and NOL, injection was performed 1 hour before testing phase. Timing of injection for the different tests: NOL at 7 days, NOR at 14 days, TST: at 22 days and FST at 24 days. For the novel object location task, all procedures were identical to the novel object recognition task except that during the testing phase, rather than presenting a novel object, mice encountered both familiar objects, with one object located in a different place in the arena. The time and frequency of exploration of the novel/relocated object is measured as an index of memory. Behavior was scored on videos by two observers blind to treatment and the total exploration time of the objects was quantified in the testing phases. To confirm the direct implication of brain FGFR3 in cognitive disorders observed in Fgfr3^N534K/+ mice, we decided to treat mice with (−)-epicatechin bottle treatment. The animals were treated with bottle (−)-epicatechin (3 mg/L) during 4 weeks before behavioural tests.

[11] = bottle treatment 3 mg/L, 4 weeks, adult mice
[12] = subcutaneous injection, in vivo and/or in vitro

Chain of FGFR3 (P22607 23-806): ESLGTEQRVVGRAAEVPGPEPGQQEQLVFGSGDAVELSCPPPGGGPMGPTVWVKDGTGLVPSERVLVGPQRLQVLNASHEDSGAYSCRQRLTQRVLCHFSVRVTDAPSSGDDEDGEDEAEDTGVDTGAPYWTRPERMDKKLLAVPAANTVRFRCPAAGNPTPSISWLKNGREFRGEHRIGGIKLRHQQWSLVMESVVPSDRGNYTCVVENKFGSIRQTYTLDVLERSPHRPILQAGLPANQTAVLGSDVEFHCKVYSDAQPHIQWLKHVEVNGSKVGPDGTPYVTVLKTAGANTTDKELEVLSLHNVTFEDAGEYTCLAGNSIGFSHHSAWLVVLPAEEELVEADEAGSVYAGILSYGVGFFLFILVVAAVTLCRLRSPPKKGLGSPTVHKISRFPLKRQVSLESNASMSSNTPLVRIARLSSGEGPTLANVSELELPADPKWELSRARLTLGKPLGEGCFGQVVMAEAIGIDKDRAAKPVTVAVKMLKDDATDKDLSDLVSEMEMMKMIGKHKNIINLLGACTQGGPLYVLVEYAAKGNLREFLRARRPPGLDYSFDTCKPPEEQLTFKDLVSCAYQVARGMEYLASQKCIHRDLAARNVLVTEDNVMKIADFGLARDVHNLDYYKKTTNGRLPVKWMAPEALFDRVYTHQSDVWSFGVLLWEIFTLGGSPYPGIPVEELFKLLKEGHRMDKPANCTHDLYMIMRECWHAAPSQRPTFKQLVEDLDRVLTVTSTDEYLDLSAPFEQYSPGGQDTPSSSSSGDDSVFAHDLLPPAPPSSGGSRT

Oc1cc(O)c2c(c1)O[C@H](c1ccc(O)c(O)c1)[C@H](O)C2 [(−)-epicatechin, (2R,3R)-2-(3,4-dihydroxyphenyl)-3,4-dihydro-2H-chromene-3,5,7-triol]
antidepressant effect (TST) [1]: rescue
locomotion and coordination fine (Bar beam) [2]: rescue
spatial memory deficits (Morrys Water Maze) [3]: rescue
antidepressant effect (FST) ([4]; bottle treatment 3 mg/L, 4 weeks): rescue
antidepressant effect ([4]; subcutaneous injection, FST and TST of FIG. 1): rescue
episodic memory deficits (NOR) [5, 11]: rescue
episodic memory deficits (NOR), exploration of novel object ([5]; daily subcutaneous 0.15 mg/kg, at least seven days, 4 months old male mice, vs control littermates p=0,8697): sufficient to restore
associative memory deficits (CFC) [6]: rescue
binding specificity for FGFR3 (FGFR3): highest binding specificity
efficacy in skeletal anomalies ([7]; FGFR3 related Achondroplasia mouse model (Martin et al 2021)): showed the efficacy
functional activation of the FGFR3 downstream signalling pathway [7, 12]: sufficient to abolish or eliminating
impairment of the ciliogenesis [7, 12]: restore
memory deficits in the NOR paradigm [8]: reversed the memory deficits
coping strategy to an inescapable stress (FST) [9]: reestablished the coping strategy
spatial memory deficits (NOL) [10, 11]: rescue
spatial memory deficits (NOL), exploration of relocated object ([10]; daily subcutaneous 0.15 mg/kg, at least seven days, 4 months old male mice, vs control littermates p=0,9538): sufficient to restore
